Patent US6288028A, “BPC peptide salts with organo-protective activity, the process for their preparation and their use in therapy” (priority 1997, dated 2001)
Where no end group is shown, it is not given here.

Key:
[1] = test system: gastric lesions (96% ethanol); assay: Ethanol gastric lesions, NO-system; type: in vivo, rats; conditions: for effect on ethanol gastric lesions, agent given alone: NaBPC157 10 μg or 10 ng/kg i.p. with 96% ethanol i.g., 1 hour, L-NAME 5 mg/kg i.v., L-arginine 200 mg/kg i.v. 5 minutes before
Experimental: Some of the effects of NaBPC157 (10 μg or 10 ng/kg) were challenged in rats, such as the salutary activity against gastric lesions and NaBPC157's activity with respect to blood pressure maintenance. The lesions were obtained by using a 1 hour ethanol treatment (96%, i.g. (intragastrically)). NaBPC157 was simultaneously applied (i.p. (intraperitoneally)). In the blood pressure maintenance experiment, NaBPC157 was given intravenously (i.v.).
Also studied was the combined application of N^G -nitro-L-arginine methylester (L-NAME) (5 mg/kg i.v.), a competitive inhibitor of endothelium nitric oxide (NO)-generation and the NO-precursor L-arginine (200 mg/kg i.v.) (D-arginine was ineffective). In the gastric lesion assays, the NO-agents were given 5 minutes before the ethanol injury and the treatment with NaBPC157.

[2] = test system: Pulmonary Hypertension Syndrome (PHS) and tissue lesions; assay: Pulmonary Hypertension Syndrome, acute and chronic toxicity; type: in vivo, chicks; conditions: for tissue or organ damage (pathohistology): acute and chronic toxicity
Experimental: The present experiments describe the effects of nitric oxide (NO) agonists and antagonists and the influence of NaBPC157 on the development of Pulmonary Hypertension Syndrome (PHS) and tissue lesions in chicks. Experiments investigating acute toxicity were conducted. These included single dose applications of saline (1 ml i.p.), NaBPC157 (10 μg/kg b.w.), L-NAME (NO antagonist/doses 50, 100, 150 mg/kg b.w.) and L-arginine (NO agonist/100 mg/kg b.w./with their combination (L-NAME+NaBPC157, L-NAME+L-arginine)). Pathohistological examinations of the spleen, heart, liver and lungs and hematological analyses were conducted. Furthermore, chronic toxicity experiments were conducted. The animals were treated daily during five weeks with L-NAME (10 mg/kg b.w.), L-arginine (100 mg/kg b.w.), NaBPC157 (10 μg/kg b.w.) and their combinations (L-NAME+NaBPC157, L-NAME+L-arginine) intraperitoneally. Seven animals from each group including controls (saline 1 ml i.p.) were sacrificed every week.

restraint stress lesions = assay: 48 hour-restraint stress ulcer model; type: in vivo, rats
Experimental: (§1) The effects of NaBPC157 (10 μg or 10 ng/kg i.p., i.g.) were investigated in rats in comparison with several reference standards in several experimental ulcer models (48 hour-restraint stress, subcutaneous cysteamine, intragastrical 96% ethanol ulcer tests, NSAIAs-lesions, DNFB (Dinitrofluorhenzene), reflux esophagitis following esophagojejunal termino-lateral anastomosis) (pre-/co-/post-treatment).

DNFB-intestinal lesions = assay: DNFB-intestinal lesions; design: species or system rats; conditions: rat, in vivo
Experimental: as §1

[3] = test system: mobility in chronically stressed rats; assay: Chronic unpredictable stress, open field-immobility test; type: in vivo, rat; conditions: NaBPC157 10 μg, 10 ng; imipramine 30 mg; once daily
Source text: Various antidepressants have antiulcer activity and the models currently used in ulcer and depression research share a considerable degree of similarity. Therefore, the possibility that depression disorders could be effectively influenced by a primary antiulcer agent with cyto-/organo-protective activity such as NaBPC157 was investigated in two rat depression assays: the forced swimming test (a Porsolt's procedure) and the chronic unpredictable stress method (after five days of unpredictable stress protocol, once-daily drug application during the stress procedure and an open field-immobility test assessment at fourth and sixth days of medication).

[4] = test system: portal blood pressure, organ lesions; assay: Chronic alcohol intoxication; type: in vivo, Male Albino Wistar rats; conditions: alcohol for three months; NaBPC157 10 μg, 10 ng/kg; propranolol, ranitidine 10 mg/kg b.w.
Experimental: The effects of NaBPC157 on chronic alcohol intoxication were examined. Male Albino Wistar rats were used for these experiments. The rats were drinking either commercial whiskey or ethanol (10-20% water solution) for three months. The application of NaBPC157 (10 μg, 10 ng/kg b.w.), propranolol (10 mg/kg b.w.), and ranitidine (10 mg/kg b.w.) (control rats received an equivolume of saline 5.0 ml/kg), either intragastrically or intraperitoneally, was conducted either prophylactically (10 days before alcohol initiation) or as a co-treatment together with alcohol or therapeutically (starting at the end of a two month period, i.e. during the last month of the experiment).

reflux esophagitis = assay: Reflux esophagitis after esophagojejunal anastomosis; design: species or system rats; conditions: rat, in vivo
Experimental: as §1

Toxicity observations = type: in vivo; conditions: high dosages (e.g. g/kg b.w., i.p.)
[5] = test system: diazepam tolerance and withdrawal; assay: Diazepam tolerance and physical dependence, isoniazid latencies; design: species or system mice; conditions: mouse, in vivo
Experimental: In tolerance assays forty-two hours after the conditioning regimen, shorter preconvulsive latencies than that in healthy mice following an isoniazid treatment (800 mg/kg i.p.) were observed if diazepam (5.0 mg/kg i.p.) was given again to mice previously conditioned with diazepam alone. […] In this group at six hour intervals, unlike in diazepam conditioned mice, isoniazid preconvulsive latencies were still longer than in corresponding controls.

[6] = test system: amphetamine stereotyped behavior; assay: Amphetamine stereotypes and excitability; type: in vivo, rats; conditions: no amphetamine
Experimental: The effects of NaBPC157 on the dopamine agonist amphetamine (10 mg/kg i.p.) stereotypes and on excitability were studied. NaBPC157 was applied as a prophylactic co-treatment or therapeutic salutary regimen (10 μg or 10 ng/kg i.p.). The stereotyped behaviour and excitability was induced in rats.

cysteamine ulcer = assay: Subcutaneous cysteamine ulcer test; type: in vivo, rats; conditions: reference peptides
ethanol ulcer = assay: Intragastrical 96% ethanol ulcer test; type: in vivo, rats; conditions: reference peptides; related to treatment conditions

Compound: N=C(N)NCCC[C@@H](N)C(=O)O [D-arginine]
- effect on ethanol gastric lesions, agent given alone [1]: ineffective

Compound: COC(=O)[C@@H](N)CCCNC(=N)N[N+](=O)[O-] [L-NAME, N^G -nitro-L-arginine methylester]
- induction of PHS ([2]; L-NAME): caused PHS
- tissue or organ damage (pathohistology) [2]: caused severe tissue damage
- hematological analyses ([2]; in vivo): significant hemoglobin and leukocyte number decreases
- effect on ethanol gastric lesions, agent given alone [1]: had no effect

Compound: N=C(N)NCCC[C@H](N)C(=O)O [L-arginine]
- tissue or organ damage (pathohistology) [2]: provoked predominantly congestion, edema and hemorrhages in all organs
- inhibition of the effects of L-NAME ([2]; in vivo): successfully inhibited
- prevention of L-NAME-caused PHS ([2]; simultaneous application, L-arginine 100 mg/kg, NaBPC157 10 μg/kg b.w.): prevented
- antiulcer activity after L-NAME ([1]; L-NAME 5 mg/kg i.v. 5 minutes before ethanol): completely abolished
- effect on ethanol gastric lesions, agent given alone [1]: antiulcer effect

Compound: NC12CC3CC(CC(C3)C1)C2 [amatadine]
- effect in restraint stress (restraint stress lesions): ineffective

Compound: CC(C)C[C@H]1C(=O)N2CCC[C@H]2[C@]2(O)O[C@](NC(=O)[C@@H]3C=C4c5cccc6[nH]c(Br)c(c56)C[C@H]4N(C)C3)(C(C)C)C(=O)N12 [bromocriptine]
- effect in restraint stress (restraint stress lesions): ineffective
- effect on DNFB-intestinal lesions (DNFB-intestinal lesions): only partially effective

Compound: CN/C(=N/CCSCc1nc[nH]c1C)NC#N [cimetidine]
- effect in restraint stress (restraint stress lesions): ineffective

Compound: NC(N)=Nc1nc(CSCCC(N)=NS(N)(=O)=O)cs1 [famotidine]
- effect in restraint stress (restraint stress lesions): ineffective

Compound: CN(C)CCCN1c2ccccc2CCc2ccccc21 [imipramine]
- mobility in chronic unpredictable stress [3]: failure of imipramine activity

Compound: CC(C)NCC(O)COc1cccc2ccccc12 (stereo not drawn) [propranolol]
- portal blood pressure [4]: markedly prevented and/or decreased

Compound: CNC(=C[N+](=O)[O-])NCCSCc1ccc(CN(C)C)o1 [ranitidine]
- portal blood pressure [4]: even more increased portal pressure values
- effect on reflux esophagitis (reflux esophagitis): only partially effective

Compound: C[C@H](N)C(=O)NCC(=O)N[C@H]1CSSC[C@@H](C(=O)O)NC(=O)[C@H](CO)NC(=O)[C@H]([C@@H](C)O)NC(=O)[C@H](Cc2ccccc2)NC(=O)[C@H]([C@@H](C)O)NC(=O)[C@H](CCCCN)NC(=O)[C@H](Cc2c[nH]c3ccccc23)NC(=O)[C@H](Cc2ccccc2)NC(=O)[C@H](Cc2ccccc2)NC(=O)[C@H](CC(N)=O)NC(=O)[C@H](CCCCN)NC1=O [somatostatin]
- effect in restraint stress (restraint stress lesions): ineffective

Compound: GEPPPGKPADDAGLV [NaBPC157, Monosodium Salt of BPC157]
- influence on basal parameters (Toxicity observations): No influence on different basal parameters
- toxicity at high dosages (Toxicity observations): no toxicity
- tolerance effect of the agent itself [5]: does not produce any tolerance effect
- gross behavior, agent alone [6]: does not affect gross behavior or induce stereotypes
- tissue or organ damage (pathohistology) [2]: did not cause any tissue or organ damage

Compound: NPY
- protection, cysteamine (cysteamine ulcer): dose-dependent protection
- effect, ethanol (ethanol ulcer): partial positive effect

Compound: secretin
- protection, cysteamine (cysteamine ulcer): dose-dependent protection
- effect, ethanol (ethanol ulcer): partial positive effect

Compound: sucralfate
- effect on reflux esophagitis (reflux esophagitis): only partially effective
